Measurements reported in patent publication US20250229272A1, “Headspace Eliminating Microtiter Plate Lid” (Agilent Technologies, Inc., priority 2022, published 2025).

test system: mitochondrial network; assay: MitoTracker imaging of the mitochondrial network in cells incubated with compounds (Cytation 5); assay type: cell-based; details: cells loaded with MitoTracker and hoechst; imaged while incubating with compounds; compared to the control; FIG. 15
Procedure: Cells were loaded with MitoTracker and hoechst as per manufactures instructions. Cells were washed with media then the media was replaced with media containing MitoXpress Xtra. Imaging was carried out as the plate was incubating with compounds using a Cytation 5 with a RFP LED/Filter set. Then, the lid of the present disclosure was placed onto the base of the plate assembly and MitoXpress Assay was run as normal.
The effects in structure are then reflected in the rates of oxygen consumption showing a direct correlation between structure and function. Different compounds lead to different effects. Some promote fusion, some inhibit fusion, some fission some limit fission. The novel insight with this method is to correlate changes in structure of the mitochondria to functional changes in respiration as shown in FIG. 16 in the same well for the first time.

| Compound | effects of compounds on the mitochondrial network |
| --- | --- |
| CC[C@H]1/C=C/C=C/C[C@@H](C)[C@H](O)[C@@](C)(O)C(=O)[C@@H](C)[C@H](O)[C@@H](C)C(=O)[C@@H](C)[C@H](O)[C@@H](C)/C=C/C(=O)O[C@@H]2[C@H](C)[C@H](CC1)O[C@]1(CC[C@H](C)[C@H](C[C@@H](C)O)O1)[C@H]2C [Oligomycin] | cause the network to condense, and divide |
| C=C(C)[C@H]1Cc2c(ccc3c2O[C@@H]2COc4cc(OC)c(OC)cc4[C@@H]2C3=O)O1 [Rotenone] | cause the network to condense, and divide |
| Antimycin | cause the network to condense, and divide |
